Experimental data from patent publication US7713943B2, “Further use of protein kinase N beta” (Silence Therapeutics Aktiengesellschaft (AG), priority 2002, dated 2010).
Entries after “also recorded” stand apart in the source; their conditions may differ. Marks after values point to notes of the source that are not given here. Blank lines part the entries; values can stand above or below the compound they belong to.

Legend:
[1] = tested on: endogenous PKN-beta; assay: Expression of endogenous PKN-beta after LY294002, Western blot, PC-3 cells; format: cell-based, human
Description: (§1) PC-3 cells were cultivated as described in example 1 herein. Said PC-3 cells are PTEN −/−. HeLa cells were obtained from the American Type Culture Collection (ATCC) and grown as described in Sternberger et al. (2002). Transfections were carried out in 10-cm plates (at 30% to 50% confluency) using Fugene 6 (Roche, Nutley, N.J.) according to the manufacturer's instructions. Cultivated cells were trypsinated and harvested following stopping the trypsin effect by medium. Both cell types, i.e. PC-3 cells and HeLa cells were treated for the indicated times with 10 μM LY294002 or DMSO, whereby DMSO was used as the solvent for LY294002 and, because of this, as negative control. The resulting extracts were fractionated by SDS-PAGE and subsequently analysed by Western-blotting. The levels of the indicated proteins such as p110, which served as a loading control, endogenous PKN-beta and phosphorylated Akt were detected using the respective antibodies. Phosphorylated Akt (P*-Akt) serves as a control for the efficacy of the LY294002-mediated treatment.

[2] = tested on: endogenous PKN-beta; assay: Expression of endogenous PKN-beta after LY294002, Western blot, HeLa cells; format: cell-based; conditions: 10 μM LY294002, 48 h
Description: as §1

[3] = tested on: PKNbeta; assay: Kinase activity and phosphorylation of recombinant PKN-beta from LY294002-treated HeLa cells; format: cell-based
Text: Recombinant wildtype PKN-beta or derivatives of PKN-beta (as described in FIGS. 10-11) were transiently expressed in HeLa cells. Said derivatives were PKN-beta derivative TA and derivative KE as described in example 10 herein. The PKN-beta was modified in each case by a myc-tag as described above which allowed the precipitation of PKN-beta and its derivatives using an anti-Myc antibody.
For the assessment of the activity of PKN-beta an in vitro kinase activity using the immune precipitates was carried out as described above. Half of the precipitates were subjected to the in vitro kinase reaction, the second half was analyzed by Western-blotting using anti-phospho-PRK antibodies. The filter was stripped and reprobed using the anti-PKN-beta antiserum. Phospho-p70 S6 Kinase levels were analyzed from aliquots of cell lysates, that were withdrawn earlier, to confirm the efficacy of the LY294002 treatment even after only 3 h treatment. The anti-phospho p70 antibody was obtained from Cell signaling.

[4] = tested on: MPB (myelin basic protein); assay: In vitro kinase activity of protein kinase N beta derivatives, MPB/MBP phosphorylation; format: biochemical; design: key to Activity: +: active; −: inactive; !: no “hyper activation” was observed as one might have expected from comparable mutations in other kinases (Morgan and Debond, 1994); conditions: for Activity: MPB substrate, FIG. 9
Description: The respective fragments were transiently epressed in HeLa cells. Their relative expression was determined by Western-blot analysis of Hela cell extracts using an anti-PKNbeta antibody.
MPB is myelin basic protein which is a standard in vitro phosphorylation substrate.
As may be taken from FIG. 9A apart from the full-length protein kinase N beta only the kinase domain in its otherwise wildtype form is active in phosphorylating MPB.
The PKNbeta-derived molecules were immune-precipitated from the cell extracts shown in FIG. 10 by using anti-tag antibodies. The immune precipitates were washed as described (Klippel et al., 1996) and divided in two halfs. One half was incubated with 5 μg MBP (UBI) as a phosphorylation substrate, 4 mM MgCl2 and gamma ^32P-ATP in a buffered solution for 10 min at room temperature. In addition, phosphatase inhibitors and inhibitors against unspecifically acting kinases were added as in Klippel et al., 1998. Incorporation of radioactive phosphate was detected by autoradiography after separating the reaction products by 16% SDS-PAGE (FIG. 11B).

[5] = tested on: GST-GSK3 fusion protein; assay: Non-radioactive in vitro kinase assay, anti-phospho GSK3alpha Western blot; format: biochemical; conditions: immune precipitates, 200 μM rATP, FIG. 11A
Description: The second half of the immune precipitates was incubated with 1 μg GST-GSK3 fusion protein (Cell Signaling Technology) as a phosphorylation substrate in the presence of 200 μM rATP. The reaction mixture was subsequently analyzed by 8-16% gradient SDS-PAGE and Western blotting using the anti-phospho GSK3alpha antibody (Cell Signaling Technology) (FIG. 11A).
The specificity of the in vitro phosphorylation reactions was controlled by analyzing kinase defective variants (e.g. containing mutations in the ATP binding site, see above) in parallel to active protein.
In a first step, the suitability of a non-radioactive screening formate was determined, whereby the various protein kinase N beta derivatives as already discussed in connection with example 10, were used for phosphorylating a suitable substrate. Such substrate may, for example, be MBP or a GSK3 peptide which is typically immobilised on a suitable carrier such as agarose- or sepharose beads or on plastic surfaces. In the present case and as depicted in FIG. 11A, the substrate is a GSK3-derived peptide fused to paramyosin. […] The phosphorylated substrate in the present case was detected by anti-phospho GSK3 alpha antibody (mentioned above).

[6] = LY294002 treatment, anti-phospho-PRK antibody
[7] = transient overexpression in HeLa cells

Compound: O=c1cc(N2CCOCC2)oc2c(-c3ccccc3)cccc12 [LY294002, 2-(4-morpholinyl)8-phenylchromone]
- endogenous PKNbeta expression (protein level) ([1]; 10 μM LY294002, 24 h): visible reduction
- endogenous PKNbeta expression (protein level) ([1]; 10 μM LY294002, 48 h): further reduced
- endogenous PKNbeta expression (protein level) [2]: reduced amounts can be detected
- kinase activity of PKNbeta, phosphorylation of MBP ([3]; 3 h of LY294002 treatment): visible
- kinase activity of PKNbeta, phosphorylation of MBP ([3]; 24 h of LY294002 treatment): almost completely inhibited
- kinase activity of PKNbeta, phosphorylation of MBP ([3]; LY294002 treatment of HeLa cells prior to lysis, FIG. 13): strong inhibition
- phosphorylation of PKNbeta at position 718 [3, 6]: compromised
- phosphorylation status of PKN-beta derivative KE [3, 6]: to some extent affected

- Activity [4, 7]: −*!
Compound: TE718: kinase domain derivative, threonine at position 718 changed to glutamic acid

- Activity [4, 7]: −*
Compound: TA718: kinase domain derivative, threonine at position 718 changed to alanine

- phosphorylation of MBP, 32P incorporation ([4]; immune precipitates, gamma 32P-ATP, autoradiography, FIG. 11B): show activity
- phosphorylating MPB (FIG. 9A) [4, 7]: active
- Activity [4, 7]: +*
Compound: Kinase domain comprising amino acids 535-889: protein kinase N beta derivative, kinase domain comprising amino acids 535-889
- phosphorylation of GSK3-derived substrate [5]: suitable to phosphorylate the substrate; also recorded: show activity

- Activity [4, 7]: −*!
Compound: TD718: kinase domain derivative, threonine at position 718 changed to aspartic acid
